In patent US20250129091A1, “THIENOPYRROLOTRIAZINE COMPOUNDS, THEIR PREPARATION AND THEIR THERAPEUTIC USE” (Sanofi, priority 2022, published 2025):
Where a name gives a salt, the structure may show the parent alone.

Each compound was assayed on NLRP3 inflammasome (assay: IL-1β secretion assay (LPS-primed, nigericin-activated THP-1 cells, MSD readout)). Conditions: Homo sapiens, LPS-primed, read-out: IL1b IC50.
Format: cell-based
Description: Monocytic THP-1 cells (DSMZ) were maintained in RPMI media (RPMI 1640 Medium (1×) +10% FBS, Eurobio CVFSVFOO—OU). Cells were then plated at 16,000 cells per well in 96-well round bottom cell culture plates (TPP, ref 92097) and maintained with RPMI and 0.1% Bovine Serum Albumin solution. Activation of the NLRP3 inflammasome requires both an NF-kB-dependent priming step and the addition of a NLRP3 activator. The priming step was induced by LPS (10 ng/mL, Sigma, ref:L4391) for 3 h at 37° C., then compound, in a 1:3.10 serial dilution series in DMSO 1:100, and the activator nigericin (Sigma Aldrich, ref: SML1779) 10 μM (final concentration) were added to the cells and co-incubated for 2 h. 50 μL supernatant was removed, and IL-1β levels were monitored using an MSD assay (Electro Chemical Luminescence Immunoassay (ECLI) according to manufacturers' instructions.
IC50 values were calculated from the plot of percentage of inhibition versus the inhibitor concentration by a logistics fit according to: y=A2+(A1−A2)/(1+(x/IC50)^p) where y is the %-inhibition at the inhibitor concentration, x. A1 is the lowest inhibition value, i.e., 0%, and A2 the maximum inhibition value, i.e., 100%. The exponent, p, is the Hill coefficient. The curve fitting was conducted with an internally developed software.

Row | Compound | IC50 [µM]
1 | CC(C)c1nn(CC(=O)NC2CN3CCC2CC3)c(=O)c2cc3ccsc3n12 (stereo not drawn) [Example 39, 2-(8-isopropyl-5-oxothieno[3′,2′:4,5]pyrrolo[1,2-d][1,2,4]triazin-6(5H)-yl)-N-(quinuclidin-3-yl)acetamide] | 2.23

Same assay, conditions: Homo sapiens, THP-1, LPS-primed, read-out: IL1b IC50

Row | Compound | IC50 [µM]
2 | CC(C)c1nn(CC(=O)Nc2cncs2)c(=O)c2cc3cc(Cl)sc3n12 [Example 7, 2-(2-chloro-8-isopropyl-5-oxothieno[3′,2′:4,5]pyrrolo[1,2-d][1,2,4]triazin-6(5H)-yl)-N-(thiazol-5-yl)acetamide] | 1.79
3 | Cc1cc2cc3c(=O)n(CC(=O)N[C@@H]4CCCN(C)C4)nc(C(C)C)n3c2s1 [Example 9, (R)-2-(8-isopropyl-2-methyl-5-oxothieno[3′,2′:4,5]pyrrolo[1,2-d][1,2,4]triazin-6(5H)-yl)-N-(1-methylpiperidin-3-yl)acetamide 2,2,2-trifluoroacetate] | 9.56
4 | CC(C)c1nn(CC(=O)Nc2ccc3ncsc3c2)c(=O)c2cc3ccsc3n12 [Example 12, N-(benzo[d]thiazol-6-yl)-2-(8-isopropyl-5-oxothieno[3′,2′:4,5]pyrrolo[1,2-d][1,2,4]triazin-6(5H)-yl)acetamide] | 0.54
5 | CC(C)c1nn(CC(=O)Nc2ccc3scnc3c2)c(=O)c2cc3ccsc3n12 [Example 15, N-(benzo[d]thiazol-5-yl)-2-(8-isopropyl-5-oxothieno[3′,2′:4,5]pyrrolo[1,2-d][1,2,4]triazin-6(5H)-yl)acetamide] | 2.74
6 | COc1ccc(NC(=O)Cn2nc(C(C)C)n3c(cc4ccsc43)c2=O)cn1 [Example 16, 2-(8-isopropyl-5-oxothieno[3′,2′:4,5]pyrrolo[1,2-d][1,2,4]triazin-6(5H)-yl)-N-(6-methoxypyridin-3-yl)acetamide] | 1.52
7 | CC(C)c1nn(C(C)C(=O)N[C@@H]2CCCN(C3CCC3)C2)c(=O)c2cc3ccsc3n12 (stereo partly drawn) [Example 25, N—((R)-1-cyclobutylpiperidin-3-yl)-2-(8-isopropyl-5-oxothieno[3′,2′:4,5]pyrrolo[1,2-d][1,2,4]triazin-6(5H)-yl)propanamide formate] | 0.768
8 | CC(C)c1nn(C(C)C(=O)N[C@@H]2CCCN(C3CC3)C2)c(=O)c2cc3ccsc3n12 (stereo partly drawn) [Example 26, N—((R)-1-cyclopropylpiperidin-3-yl)-2-(8-isopropyl-5-oxothieno[3′,2′:4,5]pyrrolo[1,2-d][1,2,4]triazin-6(5H)-yl)propanamide formate] | 1.99
9 | CC(C)c1nn(CC(=O)Nc2ccc3cnn(C)c3c2)c(=O)c2cc3ccsc3n12 [Example 27, 2-(8-isopropyl-5-oxothieno[3′,2′:4,5]pyrrolo[1,2-d][1,2,4]triazin-6(5H)-yl)-N-(1-methyl-1H-indazol-6-yl)acetamide formate] | 1.03
10 | COCc1nn(CC(=O)N[C@@H]2CCCN(C3CCC3)C2)c(=O)c2cc3cc(Cl)sc3n12 [Example 29, (R)-2-(2-chloro-8-(methoxymethyl)-5-oxothieno[3′,2′:4,5]pyrrolo[1,2-d][1,2,4]triazin-6(5H)-yl)-N-(1-cyclobutylpiperidin-3-yl)acetamide formate] | 1.14
11 | COCc1nn(CC(=O)N[C@@H]2CCCN(C3CC3)C2)c(=O)c2cc3cc(Cl)sc3n12 [Example 30, (R)-2-(2-chloro-8-(methoxymethyl)-5-oxothieno[3′,2′:4,5]pyrrolo[1,2-d][1,2,4]triazin-6(5H)-yl)-N-(1-cyclopropylpiperidin-3-yl)acetamide formate] | 1.2
12 | COCc1nn(CC(=O)N[C@@H]2CCCN(C3CCC3)C2)c(=O)c2cc3ccsc3n12 [Example 32, (R)—N-(1-cyclobutylpiperidin-3-yl)-2-(8-(methoxymethyl)-5-oxothieno [3′,2′:4,5]pyrrolo[1,2-d][1,2,4]triazin-6(5H)-yl)acetamide] | 3.06
13 | COCc1nn(CC(=O)N[C@@H]2CCCN(C3CC3)C2)c(=O)c2cc3ccsc3n12 [Example 33, (R)—N-(1-cyclopropylpiperidin-3-yl)-2-(8-(methoxymethyl)-5-oxothieno[3′,2′:4,5]pyrrolo[1,2-d][1,2,4]triazin-6(5H)-yl)acetamide 2,2,2-trifluoroacetate] | 2.75

Next, values leading:

Row | IC50 [µM] | Compound
14 | 1.01 | CC(C)c1nn(CC(=O)NC2CCCN(C3CCC3(C)C)C2)c(=O)c2cc3ccsc3n12 (racemic) [Example 57, 2-(12-isopropyl-9-oxo-3-thia-1,10,11-triazatricyclo[6.4.0.02,6]dodeca-2(6),4,7,11-tetraen-10-yl)-N-[rac-(3R)-1-(2,2-dimethylcyclobutyl)-3-piperidyl]acetamide]
15 | > 10 | CC(C)c1nn(CC(=O)NC2CCN(C(C)(C)C)C2)c(=O)c2cc3ccsc3n12 (racemic) [Example 87, 2-(12-isopropyl-9-oxo-3-thia-1,10,11-triazatricyclo[6.4.0.02,6]dodeca-2(6),4,7,11-tetraen-10-yl)-N-[rac-(3R)-1-tert-butylpyrrolidin-3-yl]acetamide]
16 | 4.5 | CC(C)c1nn(CC(=O)NC2C[C@@H]3C[C@H]2N(C)C3)c(=O)c2cc3ccsc3n12 (stereo in doubt) [Example 82, N-[(1R,4R)-2-methyl-2-azabicyclo[2.2.1]heptan-6-yl]-2-(8-isopropyl-5-oxothieno [3′,2′:4,5]pyrrolo[1,2-d][1,2,4]triazin-6(5H)-yl)acetamide]
17 | 6.16 | CC(C)c1nn(CC(=O)NC2CN(C)CC(F)(F)C2)c(=O)c2cc3cc(Cl)sc3n12 (stereo not drawn) [Example 34, 2-(2-chloro-8-isopropyl-5-oxothieno[3′,2′:4,5]pyrrolo[1,2-d][1,2,4]triazin-6(5H)-yl)-N-(5,5-difluoro-1-methylpiperidin-3-yl)acetamide 2,2,2-trifluoroacetate]
18 | 0.045 | CC(C)c1nn(CC(=O)NC2CCCN(C(C)(C)C)C2)c(=O)c2cc3ccsc3n12 (stereo not drawn) [Example 37, N-(1-(tert-butyl)piperidin-3-yl)-2-(8-isopropyl-5-oxothieno[3′,2′:4,5]pyrrolo[1,2-d][1,2,4]triazin-6(5H)-yl)acetamide formate]
19 | 1.3 | CC(C)c1nn(CC(=O)NC2CCCN(CC(F)(F)F)C2)c(=O)c2cc3ccsc3n12 (stereo not drawn) [Example 38, 2-(8-isopropyl-5-oxothieno[3′,2′:4,5]pyrrolo[1,2-d][1,2,4]triazin-6(5H)-yl)-N-(1-(2,2,2-trifluoroethyl)piperidin-3-yl)acetamide 2,2,2-trifluoroacetate]
20 | 0.259 | CC(C)c1nn(CC(=O)N[C@@H]2CCCN(C3COC3)C2)c(=O)c2cc3ccsc3n12 [Example 40, (R)-2-(8-isopropyl-5-oxothieno[3′,2′:4,5]pyrrolo[1,2-d][1,2,4]triazin-6(5H)-yl)-N-(1-(oxetan-3-yl)piperidin-3-yl)acetamide]
21 | 1.15 | CC(=O)N1CCC[C@@H](NC(=O)Cn2nc(C(C)C)n3c(cc4ccsc43)c2=O)C1 [Example 42, (R)—N-(1-acetylpiperidin-3-yl)-2-(8-isopropyl-5-oxothieno[3′,2′:4,5]pyrrolo[1,2-d][1,2,4]triazin-6(5H)-yl)acetamide]
22 | 1.53 | CC(C)c1nn(CC(=O)N[C@@H]2CCCN(c3nccn3C)C2)c(=O)c2cc3ccsc3n12 [Example 45, (R)-2-(8-isopropyl-5-oxothieno[3′,2′:4,5]pyrrolo[1,2-d][1,2,4]triazin-6(5H)-yl)-N-(1-(1-methyl-1H-imidazol-2-yl)piperidin-3-yl)acetamide]
23 | 8.2 | CC(C)c1nn(CC(=O)NC2CCN(C)C(=O)C2)c(=O)c2cc3ccsc3n12 (stereo not drawn) [Example 46, 2-(8-isopropyl-5-oxothieno[3′,2′:4,5]pyrrolo[1,2-d][1,2,4]triazin-6(5H)-yl)-N-(1-methyl-2-oxopiperidin-4-yl)acetamide]
24 | 1.03 | CC(C)c1nn(CC(=O)NC2CCC(=O)N(C)C2)c(=O)c2cc3ccsc3n12 (stereo not drawn) [Example 47, 2-(8-isopropyl-5-oxothieno[3′,2′:4,5]pyrrolo[1,2-d][1,2,4]triazin-6(5H)-yl)-N-(1-methyl-6-oxopiperidin-3-yl)acetamide]
25 | 0.0589 | CC(C)c1nn(CC(=O)N[C@@H]2CCCN(C(C)C)C2)c(=O)c2cc3ccsc3n12 [Example 48, 2-(12-isopropyl-9-oxo-3-thia-1,10,11-triazatricyclo[6.4.0.02,6]dodeca-2(6),4,7,11-tetraen-10-yl)-N-[(3R)-1-isopropyl-3-piperidyl]acetamide]
26 | 0.027 | CC(C)c1nn(CC(=O)N[C@@H]2CCCN(C3CCCC3)C2)c(=O)c2cc3ccsc3n12 [Example 49, N-[(3R)-1-cyclopentyl-3-piperidyl]-2-(12-isopropyl-9-oxo-3-thia-1,10,11-triazatricyclo [6.4.0.02,6]dodeca-2(6),4,7,11-tetraen-10-yl)acetamide]

Same assay, conditions: LPS-primed, read-out: IL1b IC50

Row | IC50 [µM] | Compound
27 | 0.278 | CC(O)c1nn(CC(=O)N[C@@H]2CCCN(C3CC3)C2)c(=O)c2cc3ccsc3n12 (single isomer, unassigned) [Example 44]
28 | 0.65 | CC(O)c1nn(CC(=O)N[C@@H]2CCCN(C3CCC3)C2)c(=O)c2cc3ccsc3n12 (single isomer, unassigned) [Example 50]
29 | > 10 | CC(O)c1nn(CC(=O)N[C@@H]2CCCN(C3CC3)C2)c(=O)c2cc3ccsc3n12 (single isomer, unassigned) [Example 51]
30 | > 10 | CC(O)c1nn(CC(=O)N[C@@H]2CCCN(C3CCC3)C2)c(=O)c2cc3ccsc3n12 (single isomer, unassigned) [Example 81]
